The values that follow come from PubChem BioAssay AID732 (Emory University Molecular Libraries Screening Center, 2007).

This assay concerns in vivo angiogenesis, blood vessel count. In words: angiogenesis inhibition in living animals, in vivo study, HTS (AID 732).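 Further: zebrafish embryos dosed at one day post fertilization; 0% = reference inhibitor and 100% = plate mean.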 As to conditions: active compounds read low;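 tested at 30 µM in the well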.

“And” between values parts separate entries of the source, which are not always exact repeats. Equal entries are not always repeated. The source made the active and inactive calls. How the calls were made is not given here.

Turning to `O=c1ccc2c(OCCCCc3ccccc3)c3ccoc3cc2o1`, the vessel count % control is 76.3% (inactive).

Regarding `CSc1ccc(C(=O)c2[nH]c(=O)[nH]c2C)cc1`, the vessel count % control is 76.7% (inactive). For `C=CCN1CCc2cccc3c2[C@H]1Cc1ccc(O)c(O)c1-3`, the vessel count % control was 113% (inactive). As to `O=[N+]([O-])c1ccc2nc(N3CCNCC3)ccc2c1`, the vessel count % control was 118% (inactive).

For `O=c1[nH]c2ccccc2n1CCCN1CCC(n2c(=O)[nH]c3cc(Cl)ccc32)CC1`, the vessel count % control was 83.8% (inactive). With `NC(N)=NCc1cccc(I)c1`, the vessel count % control is 98.4% (inactive). The value for `OC[C@H]1NC[C@@H](O)[C@@H]1O` was 96% (inactive). For the compound `Oc1ccc(C2CNCc3sccc32)cc1O` (configuration not stated), the vessel count % control was 94.7% (inactive). The value for `CCCN(CCC)C1CCc2cccc(O)c2C1` (configuration not stated) was 111% (inactive); that for `CCCCC1C(=O)N(c2ccccc2)N(c2ccccc2)C1=O` was 93.9% (inactive); that for `c1ccc2nc(N3CCNCC3)ccc2c1` was 98% (inactive). The value for `CN(C)CCCN1c2ccccc2CCc2ccc(Cl)cc21` was 85.2% (inactive); that for `CCCN(CCC)CCc1cccc2c1CC(=O)N2` was 96.5% (inactive); that for `Nc1ccn([C@@H]2O[C@H](CO)[C@@H](O)[C@@H]2O)c(=O)n1` was 104% (inactive). As for `CC1(NCC(O)COc2cccc3[nH]ccc23)CCC(C(C)(C)NC(=O)CBr)CC1` (configuration not stated), the vessel count % control is 124% (inactive). The value for `CCCCNc1c(C(=O)OCC)c(C)nc2c1cnn2CC` was 87.3% (inactive); that for `NC(=O)CI` was 108% (inactive); that for `COC(=O)c1cc2c(cn1)[nH]c1ccccc12` was 92.7% (inactive). Turning to `Cn1cnc2c1c(=O)[nH]c(=O)n2C`, the vessel count % control is 118% (inactive).

For `CC(=O)c1c(O)c(C)c(O)c(Cc2c(O)c3c(c(C(=O)/C=C/c4ccccc4)c2O)OC(C)(C)C=C3)c1O`, the vessel count % control was 0% (inactive). The value for `CC1(C(=O)O)C2CCC(O2)C1(C)C(=O)O` (configuration not stated) was 0% (inactive); that for `CCCCCCN(CCCCCC)C(=O)Cc1c(-c2ccc(F)cc2)[nH]c2ccccc12` was 126% (inactive); that for `Cc1oncc1C(=O)Nc1ccc(C(F)(F)F)cc1` was 81.6% (inactive). The value for `C[C@]12CCC(=O)C=C1CC[C@@H]1[C@@H]2[C@@H](O)C[C@@]2(C)[C@H]1CC[C@]2(O)C(=O)COC(=O)CCC(=O)O` was 98.7% (inactive); that for `Nc1nc2ccc(OC(F)(F)F)cc2s1` was 77% (inactive); that for `O=C(NCC1CCCCN1)c1cc(OCC(F)(F)F)ccc1OCC(F)(F)F` (configuration not stated) was 127% (inactive). In the case of `CN(C)CCCO[C@@H]1[C@H]2OC(C)(C)O[C@H]2O[C@@H]1C(O)CO` (some centres not stated), the vessel count % control was 88% (inactive). For `O=C(CCNNC(=O)c1ccncc1)NCc1ccccc1`, the vessel count % control was 67.2% (inactive).

Regarding `Cn1ccc2cc3c(cc21)CCN3C(=O)Nc1cccnc1`, the vessel count % control is 88% (inactive). The value for `CC[N+](C)(C)c1cccc(O)c1` was 114% (inactive); that for `CC(=O)Oc1ccccc1C(=O)O` was 105% (inactive); that for `O=[N+]([O-])c1cccc2c(Br)[nH]nc12` was 99.9% (inactive). The value for `Cc1ccc(S(=O)(=O)NC(=O)NN2CCCCCC2)cc1` was 102% (inactive). The value for `O=Nc1c(-c2c(O)[nH]c3ccccc23)[nH]c2ccccc12` was 15.6%; that for `CN1C(=O)CCS(=O)(=O)C1c1ccc(Cl)cc1` (configuration not stated) was 97% (inactive); that for `NCc1cc(=O)[nH]o1` was 110% (inactive).

For `CC(N)C1CCC(C(=O)Nc2ccncc2)CC1` (configuration not stated), the vessel count % control was 111% (inactive).

Take `COc1cc(NS(C)(=O)=O)ccc1Nc1c2ccccc2nc2ccccc12`: the vessel count % control is 106% (inactive).

Turning to `CC(C)OC(=O)C(C)(C)Oc1ccc(C(=O)c2ccc(Cl)cc2)cc1`, the vessel count % control was 89.2% (inactive). The value for `COC(=O)C1=C(C)NC(C)=C([N+](=O)[O-])C1c1ccccc1C(F)(F)F` (configuration not stated) was 92.2% (inactive); that for `Nc1nc2c(ncn2COC(CO)CO)c(=O)[nH]1` was 84.5% (inactive).

As for `N=C(N)SCCc1ccc(CCSC(=N)N)cc1`, the vessel count % control was 72.6% (inactive). Turning to `CN(C)CCN(Cc1cccs1)c1ccccn1`, the vessel count % control was 110% (inactive). For the compound `COc1ccc2c(c1)[C@@]13CCCC[C@H]1[C@@H](C2)NCC3`, the vessel count % control was 78.3% (inactive). On to `CN(C)[C@@H]1C(=O)C(C(N)=O)=C(O)[C@@]2(O)C(=O)C3=C(O)c4c(O)ccc(Cl)c4[C@@H](O)[C@H]3C[C@@H]12`, for which the vessel count % control was 87.7% (inactive). The value for `CC#CCOC(=O)c1c(C)nc2sc3c(c2c1N)CCC(O)C3` (configuration not stated) was 116% (inactive); that for `O=C1c2ccccc2-c2n[nH]c3cccc1c23` was 107% (inactive).

For `CCN1CCC[C@H]1CNC(=O)c1c(O)c(Cl)cc(Cl)c1OC`, the vessel count % control is 103% (inactive). For `COc1cc(Cc2cnc(N)nc2N)cc(OC)c1OC`, the vessel count % control was 114% (inactive). As to `CC1=C(C(=O)O)N2C(=O)[C@@H](NC(=O)C(N)c3ccccc3)[C@H]2SC1` (some centres not stated), the vessel count % control is 93.6% (inactive).

Regarding `CNCCc1c[nH]c2ccc(O)cc12`, the vessel count % control is 101% (inactive).

Turning to `O=C(N[C@@H](Cc1ccccc1)C(=O)CCl)OCc1ccccc1`, the vessel count % control was 0% (inactive).

As for `COc1ccc2c(c1O)-c1cccc3c1[C@@H](C2)N(C)CC3`, the vessel count % control was 90.5% (inactive).

As for `C[N+]1(C)CCOC(O)(c2ccc(-c3ccc(C4(O)C[N+](C)(C)CCO4)cc3)cc2)C1` (configuration not stated), the vessel count % control is 103% (inactive).

Consider `CNC(=O)c1cc2c(cn1)[nH]c1ccccc12`, for which the vessel count % control was 101% (inactive).

As to `N#CC(C#N)=C(N)/C(C#N)=C/c1ccc(O)cc1`, the vessel count % control is 93% (inactive).

With `CCCCCCC(C)(C)c1ccc([C@@H]2C[C@H](O)CC[C@H]2CCCO)c(O)c1`, the vessel count % control is 100% (inactive). The value for `O=C(O)CCC(=O)N1CCCC1C(=O)O` (configuration not stated) was 109% (inactive); that for `N[C@H](CCCCCP(=O)(O)O)C(=O)O` was 84.2% (inactive); that for `COc1cc2c(CCNC(C)=O)c[nH]c2cc1Cl` was 71.1% (inactive).

With `NCCc1ccc(S(=O)(=O)F)cc1`, the vessel count % control was 87.5% (inactive). For the compound `C[C@H](N)CN1CCc2ccc(Br)cc21`, the vessel count % control was 126% (inactive). For the compound `CC1OC1P(=O)(O)O` (configuration not stated), the vessel count % control was 102% (inactive).

Take `NN=C(N)N`: the vessel count % control was 92.2% (inactive) and 80.5% (inactive). The value for `CNCCC(Oc1ccc(C(F)(F)F)cc1)c1ccccc1` (configuration not stated) was 74.2% (inactive); that for `CN1CCc2cccc3c2C1Cc1ccc(O)c(O)c1-3` (configuration not stated) was 0% (inactive). On to `CC[C@@H](CO)NC(=O)[C@@H]1C=C2c3cccc4c3c(cn4C)C[C@H]2N(C)C1`, for which the vessel count % control was 70.9% (inactive). The value for `CCCCc1ccc(C(=O)O)nc1` was 115% (inactive); that for `C#CCOC(=O)C1=CCCN(C)C1` was 106% (inactive); that for `NC(CO)C(=O)NNCc1ccc(O)c(O)c1O` (configuration not stated) was 120% (inactive). As for `Cc1cc(C(C)(C)C)c(O)c(C)c1CC1=NCCN1`, the vessel count % control was 106% (inactive). The value for `NC(=NCc1ccc(Cl)c(Cl)c1)NC(=O)c1nc(Cl)c(N)nc1N` was 108% (inactive). For `COc1cc(C(O)CN)ccc1O` (configuration not stated), the vessel count % control is 83.3% (inactive). The value for `COc1cc2ncnc(Nc3cccc(Cl)c3)c2cc1OC` was 34.6%. The value for `OCCN1CCN(CC/C=C2/c3ccccc3Sc3ccc(C(F)(F)F)cc32)CC1` was 110% (inactive).

On to `CCOC(=O)N1CCC(=C2c3ccc(Cl)cc3CCc3cccnc32)CC1`, for which the vessel count % control is 103% (inactive). As for `CN(C)c1nc(N(C)C)nc(N(C)C)n1`, the vessel count % control was 86% (inactive). The value for `CC(NC(C)(C)C)C(=O)c1cccc(Cl)c1` (configuration not stated) was 71.1% (inactive).

As to `CCN(Cc1ccncc1)C(=O)C(CO)c1ccccc1` (configuration not stated), the vessel count % control was 114% (inactive).

Take `N[C@@H](Cn1cc(I)c(=O)[nH]c1=O)C(=O)O`: the vessel count % control was 107% (inactive). The value for `CC(N)(Cc1ccc(O)c(O)c1)C(=O)O` (configuration not stated) was 108% (inactive); that for `CNCCC(Oc1ccccc1OC)c1ccccc1` (configuration not stated) was 113% (inactive); that for `CN1CCC2(CCN3CCc4c(oc5ccccc45)C3C2)N(C)C1=O` (configuration not stated) was 87.3% (inactive). The value for `Cc1cccc(C)c1NC1=NCCCS1` was 114% (inactive). Consider `Nc1nc(SCc2ccc([N+](=O)[O-])cc2)c2ncn([C@@H]3O[C@H](CO)[C@H](O)C3O)c2n1` (some centres not stated), for which the vessel count % control is 112% (inactive). As for `Cc1ccc(O)c(N=Nc2ccccc2)n1`, the vessel count % control was 112% (inactive). The value for `OC1(c2ccc(Cl)cc2)CCN(Cc2c[nH]c3ccccc23)CC1` was 96.6% (inactive). With `CC1=C(/C=C/C(C)=C/C=C/C(C)=C/C(=O)Nc2ccc(O)cc2)C(C)(C)CCC1`, the vessel count % control is 96.8% (inactive). The value for `NC(=O)c1ncn([C@@H]2O[C@H](CO)[C@@H](O)[C@H]2O)n1` was 63.2% (inactive); that for `Oc1ccc(O)cc1` was 128% (inactive).

As for `CC(C)[N+](C)(CCOC(=O)C1c2ccccc2Oc2ccccc21)C(C)C`, the vessel count % control is 134% (inactive).

For `O=NN(CCCl)C(=O)NCCCl`, the vessel count % control is 96.9% (inactive).
